Source: patent US20210317134A1, “UBIQUITIN-SPECIFIC-PROCESSING PROTEASE 7 (USP7) MODULATORS AND USES THEREOF” (RAPT THERAPEUTICS, INC., priority 2019, published 2021)

These compounds were tested against USP7 (Homo sapiens, UniProt Q93009) (assay: USP7 inhibitory potency (Table 1)).
USP7, sequence (Q93009 whole entry): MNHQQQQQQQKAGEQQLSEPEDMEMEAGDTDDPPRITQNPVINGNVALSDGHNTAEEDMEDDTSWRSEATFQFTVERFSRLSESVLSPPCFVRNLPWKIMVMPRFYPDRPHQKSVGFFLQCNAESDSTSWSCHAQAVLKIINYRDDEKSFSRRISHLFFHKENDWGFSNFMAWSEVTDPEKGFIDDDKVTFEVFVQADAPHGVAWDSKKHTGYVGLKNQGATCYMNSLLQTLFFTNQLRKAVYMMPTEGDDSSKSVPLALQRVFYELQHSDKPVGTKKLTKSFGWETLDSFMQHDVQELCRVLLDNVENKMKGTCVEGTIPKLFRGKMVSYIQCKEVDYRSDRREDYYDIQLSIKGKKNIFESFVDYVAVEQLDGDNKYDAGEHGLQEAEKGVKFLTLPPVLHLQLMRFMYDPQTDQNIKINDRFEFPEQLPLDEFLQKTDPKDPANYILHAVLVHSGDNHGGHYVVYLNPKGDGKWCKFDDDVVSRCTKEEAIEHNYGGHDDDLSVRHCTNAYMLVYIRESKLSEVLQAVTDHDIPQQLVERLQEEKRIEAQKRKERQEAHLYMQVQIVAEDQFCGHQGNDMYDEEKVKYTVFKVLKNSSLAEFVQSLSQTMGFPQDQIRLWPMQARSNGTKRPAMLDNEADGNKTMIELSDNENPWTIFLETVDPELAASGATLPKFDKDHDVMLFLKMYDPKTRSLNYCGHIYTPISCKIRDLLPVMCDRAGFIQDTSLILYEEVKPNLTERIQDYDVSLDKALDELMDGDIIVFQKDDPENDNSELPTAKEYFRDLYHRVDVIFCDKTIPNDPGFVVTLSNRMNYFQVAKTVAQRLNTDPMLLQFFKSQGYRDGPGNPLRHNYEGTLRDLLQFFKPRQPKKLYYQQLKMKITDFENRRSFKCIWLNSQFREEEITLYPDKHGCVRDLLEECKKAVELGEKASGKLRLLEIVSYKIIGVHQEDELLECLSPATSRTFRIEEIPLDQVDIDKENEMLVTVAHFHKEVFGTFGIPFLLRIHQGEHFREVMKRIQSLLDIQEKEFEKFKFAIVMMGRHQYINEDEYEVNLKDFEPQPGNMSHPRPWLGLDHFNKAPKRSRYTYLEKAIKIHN
Format: biochemical
In the case of CCC(O)c1cc2nccc(-c3cc(Cl)cc4c3O[C@@H](c3onc5c3CNCC5)C4)c2o1 (stereo partly drawn) [drawing 1522, 1-(7-((R)-5-chloro-2-(4,5,6,7-tetrahydroisoxazolo[4,3-c]pyridin-3-yl)-2,3-dihydrobenzofuran-7-yl)furo[3,2-b]pyridin-2-yl)propan-1-ol], the IC50 is reported as less than 1000 nM.
Work on CCC(O)c1cc2nccc(-c3cc(Cl)cc4c3O[C@@H](c3onc5c3CNCC5)C4)c2s1 (stereo partly drawn) [drawing 1523, 1-(7-((R)-5-chloro-2-(4,5,6,7-tetrahydroisoxazolo[4,3-c]pyridin-3-yl)-2,3-dihydrobenzofuran-7-yl)thieno[3,2-b]pyridin-2-yl)propan-1-ol] yielded an IC50 of less than 1000 nM.
Work on CCC(O)c1cc2nccc(-c3cc(Cl)cc4c3O[C@@H](c3onc5c3CNCC5)C4)c2s1 (stereo partly drawn) [drawing 1570, 1-(7-((R)-5-chloro-2-(4,5,6,7-tetrahydroisoxazolo[4,3-c]pyridin-3-yl)-2,3-dihydrobenzofuran-7-yl)thieno[3,2-b]pyridin-2-yl)propan-1-ol] yielded an IC50 of less than 1000 nM.
Compound CCC(O)c1cc2nccc(-c3cc(Cl)cc4c3O[C@@H](c3onc5c3CN(C)CC5)C4)c2s1 (stereo partly drawn) [drawing 1573, 1-(7-((R)-5-chloro-2-(5-methyl-4,5,6,7-tetrahydroisoxazolo[4,3-c]pyridin-3-yl)-2,3-dihydrobenzofuran-7-yl)thieno[3,2-b]pyridin-2-yl)propan-1-ol] has an IC50 of less than 1000 nM.
CCC(O)c1cc2ncnc(-c3cc(Cl)cc4c3O[C@@H](c3onc5c3CNCC5)C4)c2s1 (stereo partly drawn) [drawing 1579, 1-(4-((R)-5-chloro-2-(4,5,6,7-tetrahydroisoxazolo[4,3-c]pyridin-3-yl)-2,3-dihydrobenzofuran-7-yl)thieno[3,2-d]pyrimidin-6-yl)propan-1-ol] was tested, and the IC50 was less than 1000 nM.
Compound CCC(O)c1cc2ncnc(-c3cc(Cl)cc4c3O[C@@H](c3onc5c3CNCC5)C4)c2s1 (stereo partly drawn) [drawing 1596, 1-(4-((R)-5-chloro-2-(4,5,6,7-tetrahydroisoxazolo[4,3-c]pyridin-3-yl)-2,3-dihydrobenzofuran-7-yl)thieno[3,2-d]pyrimidin-6-yl)propan-1-ol] has an IC50 of less than 1000 nM.
CCC(O)c1cc2nccc(-c3cc(Cl)cc4c3O[C@@H](c3onc5c3CNCC5)C4)c2o1 (stereo partly drawn) [drawing 1618, 1-(7-((R)-5-chloro-2-(4,5,6,7-tetrahydroisoxazolo[4,3-c]pyridin-3-yl)-2,3-dihydrobenzofuran-7-yl)furo[3,2-b]pyridin-2-yl)propan-1-ol] showed an IC50 of less than 1000 nM.
COC(=O)c1ccc2c(-c3cc(Cl)cc4c3OC(C(=O)N3CCNCC3)C4)ccnc2c1 (centres unmarked) [methyl 4-(5-chloro-2-(piperazine-1-carbonyl)-2,3-dihydrobenzofuran-7-yl)quinoline-7-carboxylate] gave an IC50 of 10000 to 30000 nM.
